These results are taken from ChEMBL document CHEMBL3862033 (J Med Chem, 2016).

In data set [1] the target is 5-hydroxytryptamine receptor 6 (Homo sapiens) (UniProt P50406). Kind of data set: Displacement of [3H]LSD from human 5-HT6 receptor expressed in HEK cell membranes at 10 uM incubated for 90 mins under dark condition by microbeta scintillation counting method relative to control. The following applies: HEK293. On the technique in general: In a radioligand displacement assay an active substance lowers the binding of a labelled ligand.

Data set [2] addresses T1, 5-hydroxytryptamine receptor 1A (Homo sapiens) (UniProt P08908).
T1 sequence (whole entry): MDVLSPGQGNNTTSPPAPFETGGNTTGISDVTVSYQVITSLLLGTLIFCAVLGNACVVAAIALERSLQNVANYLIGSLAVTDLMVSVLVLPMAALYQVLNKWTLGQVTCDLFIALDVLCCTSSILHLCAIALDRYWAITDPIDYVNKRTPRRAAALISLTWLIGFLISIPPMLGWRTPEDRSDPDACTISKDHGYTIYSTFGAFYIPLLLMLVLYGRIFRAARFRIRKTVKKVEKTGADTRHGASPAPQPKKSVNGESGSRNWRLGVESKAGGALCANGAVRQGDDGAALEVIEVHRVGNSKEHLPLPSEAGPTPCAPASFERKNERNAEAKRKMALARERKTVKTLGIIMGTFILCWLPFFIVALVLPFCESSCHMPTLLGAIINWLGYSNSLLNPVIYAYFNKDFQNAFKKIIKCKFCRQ
Kind of data set: Displacement of [3H]WAY100635 from human 5-HT1AR expressed in CHO cell membranes at 10 uM incubated for 90 mins under dark condition by microbeta scintillation counting method relative to control.

Data set [3] in a line: Apparent permeability across basolateral side to apical side in human Caco2 cells. It counts as ADME, cell-based. Conditions: caco-2.
Data set [4] in a line: Half life of compound in fasted state simulated intestinal fluid at pH 6.5. It counts as ADME. The following applies: simulated gi fluid.
A short description of data set [5]: Half life in mouse liver microsomes. Format: ADME.
The target in data set [6] is 5-hydroxytryptamine receptor 1B (Homo sapiens) (UniProt P28222). Kind of data set: Displacement of [3H]5-CT from human 5-HT1BR expressed in HEK cell membranes at 10 uM incubated for 90 mins under dark condition by microbeta scintillation counting method relative to control. The following applies: HEK293.
A short description of data set [7]: Growth inhibition of human HepG2 cells at 30 uM. Format: cell-based. The following applies: read-out: GI.
A further data set concerns the target T2, Adenosine receptor A1 (Homo sapiens, UniProt P30542).
T2 sequence (P30542 whole entry): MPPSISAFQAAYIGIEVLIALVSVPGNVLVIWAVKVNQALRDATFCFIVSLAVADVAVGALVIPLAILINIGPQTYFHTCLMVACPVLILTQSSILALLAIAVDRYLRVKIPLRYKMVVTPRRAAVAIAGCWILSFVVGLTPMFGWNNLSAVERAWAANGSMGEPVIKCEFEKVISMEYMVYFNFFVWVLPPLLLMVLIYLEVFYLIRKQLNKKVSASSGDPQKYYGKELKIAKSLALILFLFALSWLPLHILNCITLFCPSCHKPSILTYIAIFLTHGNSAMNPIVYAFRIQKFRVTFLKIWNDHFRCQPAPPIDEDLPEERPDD
Kind of data set: Displacement of [3H]N6-phenylisopropyladenosine from recombinant human A1AR expressed in CHO cell membranes after 60 mins by liquid scintillation counting method.

Data set [8] in a line: Stability of compound in pH 1.6 fasted state simulated gastric fluid assessed as compound remaining measured after 2 hrs. Format: ADME. The following applies: read-out: Stability.
The nature of data set [9]: Half life of compound in fasted state simulated gastric fluid at pH 1.6. It counts as ADME, tissue-based, Stomach. Conditions: simulated gi fluid.
The nature of data set [10]: Half life in rat liver microsomes. It counts as ADME. Background: Liver microsomes are vesicles of endoplasmic reticulum, rich in cytochrome P450 enzymes.
A short description of data set [11]: Half life in human liver microsomes. Format: ADME.
Data set [12] can be described thus: Metabolic stability in human liver microsomes assessed as compound remaining measured after 1 hr in presence of cofactor. Format: ADME.
A short description of data set [13]: Half life in Sprague-Dawley rat at 1 mg/kg, iv administered as single dose. Format: ADME, organism-based. Conditions: in vivo.
Data set [14] has as its target T3, 5-hydroxytryptamine receptor 2A (Homo sapiens, UniProt P28223). Description: Displacement of [3H]ketanserin from human 5-HT2A receptor expressed in HEK-T cell membranes incubated for 90 mins under dark condition by microbeta scintillation counting method.
For data set [15], the target named is T3, 5-hydroxytryptamine receptor 2A. Description: Displacement of [3H]ketanserin from human 5-HT2A receptor expressed in HEK-T cell membranes at 10 uM incubated for 90 mins under dark condition by microbeta scintillation counting method relative to control.
Data set [16] in a line: Initial plasma concentration in Sprague-Dawley rat at 1 mg/kg, iv administered as single dose. Format: ADME, organism-based. Conditions: in vivo.
Data set [17] can be described thus: Metabolic stability in rat plasma assessed as compound remaining measured after 120 mins. It counts as ADME, cell-free. Conditions: 2 h.
Data set [18] can be described thus: Intrinsic clearance in human liver microsomes. Format: ADME.
Data set [19] is described as follows: Volume of distribution at steady state in Sprague-Dawley rat at 1 mg/kg, iv administered as single dose. It counts as ADME, organism-based. Conditions: in vivo.
Data set [20] concerns the target 5-hydroxytryptamine receptor 4 (Homo sapiens) (UniProt Q13639). Description: Displacement of [3H]GR113808 from human 5-HT4 receptor at 10 uM incubated for 90 mins under dark condition by microbeta scintillation counting method relative to control.
Data set [21] in a line: Metabolic stability in mouse plasma assessed as compound remaining measured after 120 mins. Conditions: 2 h. It counts as ADME, cell-free.
The nature of data set [22]: Apparent permeability across apical side to basolateral side in human Caco2 cells. Format: ADME, cell-based. Conditions: caco-2.
The target in data set [23] is 5-hydroxytryptamine receptor 7 (Homo sapiens) (UniProt P34969). Description: Displacement of [3H]LSD from human 5-HT7A receptor expressed in HEK cell membranes at 10 uM incubated for 90 mins under dark condition by microbeta scintillation counting method relative to control. Conditions: HEK293.
Data set [24] has as its target T4, 5-hydroxytryptamine receptor 2C (Homo sapiens, UniProt P28335).
T4 sequence (P28335 whole entry): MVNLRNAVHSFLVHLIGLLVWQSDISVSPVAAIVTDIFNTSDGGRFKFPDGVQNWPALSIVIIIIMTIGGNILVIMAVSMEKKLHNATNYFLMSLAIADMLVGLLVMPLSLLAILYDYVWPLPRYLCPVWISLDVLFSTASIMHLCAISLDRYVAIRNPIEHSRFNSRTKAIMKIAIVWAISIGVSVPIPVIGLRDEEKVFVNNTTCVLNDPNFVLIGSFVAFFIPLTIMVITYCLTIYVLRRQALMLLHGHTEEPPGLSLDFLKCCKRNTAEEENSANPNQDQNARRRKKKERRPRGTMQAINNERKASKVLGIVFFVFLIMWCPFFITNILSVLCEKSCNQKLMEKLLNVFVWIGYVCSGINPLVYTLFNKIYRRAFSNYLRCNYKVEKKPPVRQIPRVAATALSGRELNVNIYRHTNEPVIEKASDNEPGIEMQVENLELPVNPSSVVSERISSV
Kind of data set: Displacement of [3H]mesulergine from human 5-HT2CR expressed in Flp-In HEK cell membranes incubated for 90 mins under dark condition by microbeta scintillation counting method. Further details: species or system HEK293.

A further data set concerns the target Cytochrome P450 2C9 (Homo sapiens, UniProt P11712). Description: Inhibition of CYP2C9 (unknown origin). It counts as ADME.
The target of a further data set is Adenosine receptor A2a (Homo sapiens, UniProt P29274). Description: Displacement of [3 H]2-[p-(2-carboxyethyl)phenyl-ethylamino]-5'-N-ethylcarboxamidoadenosine from recombinant human adenosine receptor A2A expressed in HEK293 cell membranes after 60 mins by liquid scintillation counting method.
Data set [25] has as its target T5, Adenosine receptor A1 (Homo sapiens) (UniProt P30542).
T5 sequence (whole entry): T2 sequence (P30542 whole entry)
Description: Agonist activity at recombinant human A1AR expressed in CHO cells assessed as inhibition of forskolin-stimulated cAMP accumulation at 10 uM after 15 mins relative to N6-cyclopentyladenosine. It counts as functional, cell-based. In general terms: Changes in cAMP serve as a functional read-out for many G protein-coupled receptors.

5-hydroxytryptamine receptor 7 (Homo sapiens), sequence (P34969 whole entry): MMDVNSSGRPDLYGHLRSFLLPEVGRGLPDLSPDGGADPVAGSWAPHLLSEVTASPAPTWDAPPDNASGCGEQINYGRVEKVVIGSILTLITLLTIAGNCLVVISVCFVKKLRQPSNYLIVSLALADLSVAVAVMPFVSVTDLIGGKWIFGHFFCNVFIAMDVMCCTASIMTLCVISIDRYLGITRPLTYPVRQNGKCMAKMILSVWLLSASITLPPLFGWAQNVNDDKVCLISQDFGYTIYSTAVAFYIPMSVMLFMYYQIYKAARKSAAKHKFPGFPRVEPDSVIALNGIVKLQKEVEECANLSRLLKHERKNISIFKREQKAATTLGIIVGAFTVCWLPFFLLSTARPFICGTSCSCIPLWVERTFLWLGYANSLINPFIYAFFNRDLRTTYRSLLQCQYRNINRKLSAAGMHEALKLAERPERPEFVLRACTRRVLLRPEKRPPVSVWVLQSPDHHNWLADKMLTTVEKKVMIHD
T3 sequence (P28223 whole entry): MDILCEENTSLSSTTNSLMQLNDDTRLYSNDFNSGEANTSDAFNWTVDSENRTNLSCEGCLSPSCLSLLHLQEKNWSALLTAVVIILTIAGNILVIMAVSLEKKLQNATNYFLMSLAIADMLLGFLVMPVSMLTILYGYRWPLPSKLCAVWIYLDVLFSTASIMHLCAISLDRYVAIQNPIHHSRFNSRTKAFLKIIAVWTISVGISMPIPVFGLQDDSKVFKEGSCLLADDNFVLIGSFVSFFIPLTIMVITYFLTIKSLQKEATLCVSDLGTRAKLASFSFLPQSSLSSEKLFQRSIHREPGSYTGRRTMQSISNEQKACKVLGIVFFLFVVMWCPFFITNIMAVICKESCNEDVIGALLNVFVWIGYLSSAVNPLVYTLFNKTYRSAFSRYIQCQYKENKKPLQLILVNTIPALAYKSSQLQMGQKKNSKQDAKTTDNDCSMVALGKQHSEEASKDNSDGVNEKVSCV
5-hydroxytryptamine receptor 1B (Homo sapiens), sequence (P28222 whole entry): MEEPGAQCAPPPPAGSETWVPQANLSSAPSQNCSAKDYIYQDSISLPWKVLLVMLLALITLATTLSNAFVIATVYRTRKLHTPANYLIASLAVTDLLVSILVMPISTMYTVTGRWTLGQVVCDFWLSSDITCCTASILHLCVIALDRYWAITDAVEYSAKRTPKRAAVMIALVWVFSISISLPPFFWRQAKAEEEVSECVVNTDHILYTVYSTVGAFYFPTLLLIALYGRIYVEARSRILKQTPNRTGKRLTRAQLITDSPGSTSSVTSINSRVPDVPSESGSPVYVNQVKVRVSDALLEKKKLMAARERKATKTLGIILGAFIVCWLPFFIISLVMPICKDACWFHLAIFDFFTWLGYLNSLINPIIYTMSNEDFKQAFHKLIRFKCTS
5-hydroxytryptamine receptor 4 (Homo sapiens), sequence (Q13639 whole entry): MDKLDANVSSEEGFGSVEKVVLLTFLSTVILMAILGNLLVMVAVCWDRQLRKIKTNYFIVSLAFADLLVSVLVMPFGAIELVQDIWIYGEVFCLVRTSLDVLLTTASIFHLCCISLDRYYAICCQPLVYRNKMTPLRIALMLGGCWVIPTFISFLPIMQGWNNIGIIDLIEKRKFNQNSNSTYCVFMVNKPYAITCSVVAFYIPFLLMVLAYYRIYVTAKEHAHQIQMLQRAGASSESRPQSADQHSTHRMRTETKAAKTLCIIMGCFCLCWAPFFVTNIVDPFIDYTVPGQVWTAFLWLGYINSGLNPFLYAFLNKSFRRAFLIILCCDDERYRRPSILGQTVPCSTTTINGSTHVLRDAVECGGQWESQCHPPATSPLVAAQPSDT
5-hydroxytryptamine receptor 6 (Homo sapiens), sequence (P50406 whole entry): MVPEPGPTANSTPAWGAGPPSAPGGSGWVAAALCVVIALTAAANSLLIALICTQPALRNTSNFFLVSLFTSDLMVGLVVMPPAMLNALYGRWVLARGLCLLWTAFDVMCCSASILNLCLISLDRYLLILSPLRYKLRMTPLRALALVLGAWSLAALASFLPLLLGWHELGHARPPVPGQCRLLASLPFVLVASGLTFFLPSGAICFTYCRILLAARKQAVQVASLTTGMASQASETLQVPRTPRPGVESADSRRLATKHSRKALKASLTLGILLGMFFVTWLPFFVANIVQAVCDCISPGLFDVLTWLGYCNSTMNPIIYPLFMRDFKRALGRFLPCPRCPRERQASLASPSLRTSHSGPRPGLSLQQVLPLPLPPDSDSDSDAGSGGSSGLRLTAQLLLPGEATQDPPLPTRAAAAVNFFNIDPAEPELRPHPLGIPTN
Cytochrome P450 2C9, sequence (P11712 whole entry): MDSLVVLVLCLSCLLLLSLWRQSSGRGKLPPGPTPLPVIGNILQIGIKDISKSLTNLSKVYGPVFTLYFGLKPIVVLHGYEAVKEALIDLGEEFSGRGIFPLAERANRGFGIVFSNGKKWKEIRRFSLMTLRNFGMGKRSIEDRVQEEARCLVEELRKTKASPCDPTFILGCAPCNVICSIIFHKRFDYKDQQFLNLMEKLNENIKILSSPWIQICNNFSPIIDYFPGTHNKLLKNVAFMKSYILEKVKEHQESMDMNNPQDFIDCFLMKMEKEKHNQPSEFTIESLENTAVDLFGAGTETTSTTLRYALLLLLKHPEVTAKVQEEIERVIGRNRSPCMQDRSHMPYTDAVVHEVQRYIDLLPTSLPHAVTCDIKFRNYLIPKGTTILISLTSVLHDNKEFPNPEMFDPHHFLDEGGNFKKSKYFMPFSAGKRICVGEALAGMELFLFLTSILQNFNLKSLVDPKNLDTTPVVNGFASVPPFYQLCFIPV
Adenosine receptor A2a, sequence (P29274 whole entry): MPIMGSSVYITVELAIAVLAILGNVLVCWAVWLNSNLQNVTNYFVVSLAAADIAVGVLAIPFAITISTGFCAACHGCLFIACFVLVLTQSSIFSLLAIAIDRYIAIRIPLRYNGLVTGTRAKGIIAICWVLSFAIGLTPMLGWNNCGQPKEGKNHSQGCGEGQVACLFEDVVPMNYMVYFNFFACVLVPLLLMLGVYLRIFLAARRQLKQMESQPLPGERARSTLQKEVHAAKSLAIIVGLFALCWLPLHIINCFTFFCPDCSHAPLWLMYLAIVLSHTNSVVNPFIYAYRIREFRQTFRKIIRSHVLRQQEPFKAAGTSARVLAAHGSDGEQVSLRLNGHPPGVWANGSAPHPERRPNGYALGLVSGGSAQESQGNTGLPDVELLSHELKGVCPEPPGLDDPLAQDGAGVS

What is called Papp is a coefficient for how fast a substance crosses the barrier. For orientation: Ki means a measure of affinity in units of concentration, obtained from inhibition or displacement. In general, Vdss refers to a proportionality between amount in the body and measured concentration, not a real space. What is called IC50 is the concentration that inhibits the measured activity by half. Low values mean greater potency, high ones weaker potency. Consider `COC(=O)[C@@]12C[C@@H]1[C@@H](n1cnc3c(NC(C4CC4)C4CC4)nc(Cl)nc31)[C@H](O)[C@@H]2O`, for which the inhibition was less than 50% in data set [1]; less than 50% in data set [2]; less than 50% in [6]; less than 10% in data set [15]; less than 50% in [20]; less than 50% in [23]. Besides, the results for the Papp in [3] and in data set [22] were 30.59 ×10⁻⁶ cm/s and 18.47 ×10⁻⁶ cm/s, respectively. In addition, the t1/2 in [4] is greater than 8 h; in data set [5], greater than 2.33 h; in [9], 2.08 h; in data set [10], greater than 2.33 h; in data set [11] it was greater than 2.33 h; in data set [13] it was 3.56 h. The inhibition at 30 µM in data set [7] was less than 30%. Further, the Ki on Adenosine receptor A1 was 437 nM; in [14], greater than 10000 nM; in [24], 117 nM. Moreover, in data set [8], the remaining at 2 h is 50%. Moreover, the values for the Stability in data set [12], in data set [17] and in data set [21] were 94%, 70.9% and 61%, respectively. Moreover, the C0 in data set [16] is 349 ng/mL. The molecule further gave a CLH in data set [18] of 0.77 µL/min/mg. The molecule further returned a Vdss in data set [19] of 4.62 L/kg. On Cytochrome P450 2C9, this molecule registered an IC50 of 20100 nM.

`CNC(=O)[C@@]12C[C@@H]1[C@@H](n1cnc3c(NC(C4CC4)C4CC4)nc(Cl)nc31)[C@H](O)[C@@H]2O`: the inhibition in [1] was less than 50%; in data set [2], less than 50%; in data set [6], less than 50%; in data set [15], less than 10%; in [20] it was less than 50%; in data set [23], less than 50%. Also, the Papp in data set [3] is 46.21 ×10⁻⁶ cm/s; in data set [22], 4.73 ×10⁻⁶ cm/s. Moreover, the t1/2 in [4] was greater than 8 h; in [5] it was greater than 2.42 h; in data set [9], 2.2 h; in data set [10], greater than 2.33 h; in [11], 2.17 h; in data set [13] it was 2.89 h. The inhibition at 30 µM in [7] is less than 30%. Moreover, the Ki was 110 nM at Adenosine receptor A1, greater than 10000 nM in data set [14], 4320 nM on Adenosine receptor A2a and 269 nM in [24]. Moreover, the remaining at 2 h in data set [8] was 50%. In addition, the values for the Stability in data set [12], in [17] and in data set [21] were 87%, 88.7% and 95%, respectively. Also, the C0 in [16] came to 1070 ng/mL. Besides, the CLH in [18] turned out to be 1.75 µL/min/mg. The same molecule gave a Vdss in data set [19] of 3.16 L/kg. Moreover, on Cytochrome P450 2C9, the IC50 is greater than 30000 nM.

Turning to `OC[C@@]12C[C@@H]1[C@@H](n1cnc3c(NC(C4CC4)C4CC4)nc(Cl)nc31)[C@H](O)[C@@H]2O`, the inhibition in [1] was less than 50%; in [2], less than 50%; in [6], less than 50%; in [15], less than 10%; in data set [20] it was less than 50%; in data set [23] it was less than 50%. The Imax in data set [25] is 104%. The Ki at Adenosine receptor A1 was 39 nM; in [14], greater than 10000 nM; at Adenosine receptor A2a, 2200 nM; in data set [24] it was 84 nM.

As to `CCOC(=O)[C@@]12C[C@@H]1[C@@H](n1cnc3c(NC(C4CC4)C4CC4)nc(Cl)nc31)[C@H](O)[C@@H]2O`, the inhibition in [1], in data set [2], in data set [6], in data set [20] and in data set [23] was less than 50% throughout. The Imax in data set [25] was 89%. In addition, the Ki at Adenosine receptor A1 was 360 nM; in data set [14], greater than 10000 nM; in data set [24] it was 30 nM.
